Experimental findings from ChEMBL document CHEMBL3352318, “MDN-0104, an antiplasmodial betaine lipid from Heterospora chenopodii” (J Nat Prod, 2014) are described below.

The subject of the assay is Plasmodium falciparum. The assay can be described thus: Antiplasmodial activity against Plasmodium falciparum 3D7 late ring stages and early trophozoites forms infected in human erythrocytes assessed as parasite growth inhibition by LDH release assay. Type of assay: functional, organism-based. For orientation: Release of lactate dehydrogenase indicates damage to the cell membrane.

In general, IC50 refers to the concentration at which inhibition is half-maximal. On to `CCCCCCCCCCC/C=C(\C)C(=O)C(C)(C)C(=O)OC[C@@H](O)COCC[C@@H](C(=O)[O-])[N+](C)(C)C`, for which the IC50 came out at 7 µM.
